Test results taken from patent US8895806B2, “Fucosyl transferase gene” (priority 1999, dated 2014).
Where two headings read alike, the source gives them in different places.

How the values were obtained:
Type in all cases: biochemical, mung bean
[1] = molecular target: recombinant GlcNAc-α1,3-fucosyl transferase (Vigna radiata, UniProt Q9ST51); assay: Assay for GlcNAc-α1,3-fucosyl transferase activity (GnGn peptide and GDP-L-[U-14C]-fucose); conditions: for Rel. Activity: acceptor substrate, standard test conditions; for Km: acceptor or donor substrate, unit inferred, read-out: apparent Km-values
[2] = system: GlcNAc-α1,3-fucosyl transferase activity; assay: Enzyme activity of insect cells transfected with the α1,3-fucosyl transferase gene versus negative control
Text: The encoding region of the assumed GlcNAc-α1,3-fucosyl transferase including cytoplasmatic and transmembrane region was amplified with the forward primer 5′-[…]-3′ (SEQ ID NO: 16) and reverse primer 5′-[…]-3′ (SEQ ID NO: 17) by means of the Expand High Fidelity PCR System of Boehringer Mannheim. The PCR product was double-digested with PstI and BamHI and subcloned in alkaline phosphatase-treated baculovirus transfer vector pVL1393 which previously had been digested with PstI and BamHI. To ensure a homologous recombination, the transfer vector was co-transfected with Baculo Gold viral DNA (PharMingen, Sand Diego, Calif.) in Sf9 insect cells in IPL-41 Medium with lipofectin. After an incubation of 5 days at 27° C., various volumes of the supernatant with the recombinant virus were used for infecting the Sf21 insect cells. After an incubation of 4 days at 27° C. in IPL-41 Medium with 5% FCS, the […] cells were harvested and washed 2× with phosphate-buffered saline solution. The cells were resuspended in 25 mM Tris HCl buffer, pH 7.4, with 2% Triton X-100 and broken up by sonication on ice.
The homogenate and the cell supernatant were assayed for GlcNAc-α1,3-fucosyl transferase. Blind samples were carried out with recombinant baculovirus which codes for the tobacco-GlcNAc-transferase I (Strasser et al., 1999, Glycobiology, in the process of printing). […]

[3] = substrate: C[C@@H]1O[C@H](OP(=O)(O)OP(=O)(O)OC[C@H]2O[C@@H](n3cnc4c(=O)[nH]c(N)nc43)[C@H](O)[C@@H]2O)[C@@H](O)[C@H](O)[C@@H]1O; assay: Assay for GlcNAc-α1,3-fucosyl transferase activity (GnGn peptide and GDP-L-[U-14C]-fucose); conditions: other: acceptor or donor substrate, unit inferred; pH 7.4; 27.0 °C
[4] = additive conc. 10 mM, recombinant transferase

[Ca+2].[Cl-].[Cl-] [CaCl2]
Relative Activity (Acceptor: GnGn-peptide) ([1]; additive conc. 10 mM, […]): 82%

[Cl][Cd][Cl] [CdCl2]
Relative Activity (Acceptor: GnGn-peptide) ([1]; additive conc. 10 mM, […]): 44%

[Cl-].[Cl-].[Co+2] [CoCl2]
Relative Activity (Acceptor: GnGn-peptide) [1]: 35%

[Cl][Cu][Cl] [CuCl2]
Relative Activity (Acceptor: GnGn-peptide) [1, 4]: 3%

O=C(O)CN(CCN(CC(=O)O)CC(=O)O)CC(=O)O [EDTA]
Relative Activity (Acceptor: GnGn-peptide) [1, 4]: 18%

CC(=O)N[C@H]1C(O)O[C@H](CO)[C@@H](O[C@@H]2O[C@H](CO)[C@H](O)[C@H](O)[C@H]2O)[C@@H]1O (stereo partly shown) [Galβ-4GlcNAc]
Rel. Activity ([1]; recombinant transferase): 0%

[Cl-].[Cl-].[Mg+2] [MgCl2]
Relative Activity (Acceptor: GnGn-peptide) [1, 4]: 52%

[Cl][Mn][Cl] [MnCl2]
Relative Activity (Acceptor: GnGn-peptide) ([1]; additive conc. 10 mM, […]): 100% | effect of addition of bivalent cations on activity of the recombinant transferase ([1]; result in words): enhances the activity

[Cl][Ni][Cl] [NiCl2]
Relative Activity (Acceptor: GnGn-peptide) ([1]; additive conc. 10 mM, […]): 24%

[Cl-].[Cl-].[Zn+2] [ZnCl2]
Relative Activity (Acceptor: GnGn-peptide) [1, 4]: 0.6%

Galβ1-3GlcNAc
Rel. Activity ([1]; recombinant transferase): 0%

Galβ1-3GlcNAcβ1-3Galβ1-4Glc
Rel. Activity ([1]; recombinant transferase): 0%

GlcNAcβ1-2Manα1-3(GlcNAcβ1-2Manα1-6)Manβ1-4GlcNAcβ1-4(Fucα1-6)GlcNAcβ1-Asn [GnGnF^6-peptide]
Km [1]: 130 µM | Rel. Activity ([1]; recombinant transferase): 87%

GlcNAcβ1-2Manα1-3(GlcNAβ1-2Manα1-6)Manβ1-4GlcNAcβ1-4GlcNAcβ1-Asn [GnGn-peptide]
Km [1]: 190 µM | Rel. Activity ([1]; recombinant transferase): 100%

GlcNAcβ1-2Manα1-3[Manα1-3(Manα1-6)Manα1-6]Manβ1-4GlcNAcβ1-4GlcNAcβ1-Asn [M5Gn-Asn]
Km [1]: 230 µM | Rel. Activity ([1]; recombinant transferase): 71%

B1: recombinant GlcNAc-α1,3-fucosyl transferase (Vigna radiata var. radiata) (protein)
chain: MMGLLTNLRGSRTDGAQQDSLPVLAPGGNPKRKWSNLMPLVVALVVIAEIAFLGRLDMAKNAAMVDSLADFFYRSRAVVEGDDLGLGLVASDRNSESYSCEEWLEREDAVTYSRGFSKEPIFVSGADQEWKSCSVGCKFGFSGDRKPDAAFGLPQPSGTASILRSMESAEYYAENNIAMARRRGYNIVMTTSLSSDVPVGYFSWAEYDMMAPVQPKTEAALAAAFISNCGARNFRLQALEALEKSNIKIDSYGGCHRNRDGRVNKVEALKHYKFSLAFENSNEEDYVTEKFFQSLVAGTVPVVVGAPNIQDFAPSPGSILHIKEIEDVESVAKTMRYLAENPEAYNQSLRWKYEGPSDSFKALVDMAAVHSSCRLCIHLATVSREKEENNPSLKRRPCKCTRGPETVYHIYVRERGRFEMESIYLRSSNLTLNAVKAAVVLKFTSLNLVPVWKTERPEVIRGGSALKLYKIYPIGLTQRQALYTFSFKGDADFRSHLENNPCAKFEVIFV
enzyme activity of the cotransfected cells and their supernatant relative to negative controls ([2]; Sf21 insect cells, homogenate and supernatant, at best): ≤ 30 × | increase in the GlcNAc-α1,3-fucosyl transferase coming from the recombinant baculoviruses ([2]; corrected for endogenous insect α1,6-fucosyl transferase activity): > 100 -fold | Km [3]: 110 µM
